One compound from patent publication US20260000766A1, “ULTRASOUND OPTOGENETIC COMPOSITIONS AND METHODS” (BOARD OF REGENTS, THE UNIVERSITY OF TEXAS SYSTEM, priority 2022, published 2026) can be followed below.

The data set can be described thus: Fluorescence spectrum tests of L012 at different pH and H2O2 concentration. The data set is classed as physicochemical. How it is done: The fluorescence spectrum tests of L012 at different pH and H2O2 concentration. the quantum yield of the L012 solution at different Ph was investigated. 1 mL L012 solution (0.5 mg/mL) with pH 7.4, 8.5, and 10.0 was mixed with H2O2, where the final concentration of H2O2 was 250 μM. The fluorescence spectrum was recorded via Fluorolog3 Fluorometer. In addition, we also investigated the quantum yield of the L012 solution with different H2O2 concentrations at pH 7.4. 1 mL L012 solution (0.5 mg/mL) with different H2O2 concentrations (50, 250, and 500 μM) at pH 7.4 was prepared at first, and the fluorescence spectrum was also recorded via Fluorolog3 Fluorometer.

As for `Nc1c(-c2ccccc2)nc(Cl)c2c([O-])n[nH]c(=O)c12.[Na+]` [L012, L012 sodium salt], for the setting “H2O2 concentration increased from 50 to 500 μM”, the “improvement of fluorescence intensity” value was “around four”. Further, under “pH changed from 7.4 to 10”, the “increase of fluorescence intensity” value is “around 30%”.
